Assays:
Lipophilicity comparison = format: physicochemical; settings: ratio isopropyl ester / lithium salt
Text: Although the concentration of latanoprost lithium salt was 9 times higher than the concentration of latanoprost (isopropyl ester) we believe that the main additional effect (compared with latanoprost) is based on the lithium salt because the lipophilicity of latanoprost (isopropyl ester) is more than 1000 times higher than the lipophilicity of the latanoprost lithium salt. Consequently the ester can be expected to traverse biological membranes such as the round window membrane much better than the water-soluble salt. […] The concentration of 450 μg/ml of latanoprost lithium salt corresponds to approximately 1 mM lithium, i.e. a concentration within the therapeutic range of lithium. The lower concentrations 150 μg/ml and 50 μg/ml of latanoprost lithium salt had no effect which can be anticipated if the effect on tinnitus loudness at least partly is based on the pharmacological effect of lithium since the two lower concentrations are below the therapeutic concentration range of lithium.

[1] = system: patients suffering from Ménière's disease; settings: cited from earlier work
[2] = system: patients with Ménière's disease; assay: Randomized, double blind, placebo-controlled cross-over clinical trial: tinnitus loudness after intratympanic injection; format: in vivo, human; settings: for Reduction of tinnitus loudness in decibels, Day 5: Day 5 after initiation; for Reduction of tinnitus loudness in decibels, Day 5 / Reduction of tinnitus loudness in decibels, Day 15 / Reduction of tinnitus loudness in decibels, Day 29: intratympanic once daily for 3 days, vs placebo, baseline-corrected, mean ± SEM, lithium salt 450 μg/ml, isopropyl ester 50 μg/ml; for Reduction of tinnitus loudness in decibels, Day 15: Day 15 after initiation; for Reduction of tinnitus loudness in decibels, Day 29: Day 29 after initiation; for Effect on tinnitus loudness: intratympanic injection
Text: The invention is exemplified by the following non-limiting example based on a recently performed clinical trial: Patients suffering from unilateral Ménière's disease were enrolled in a randomized, double blind, placebo-controlled clinical trial. The study followed a cross-over protocol. The patients received an intratympanic injection (injection into the middle ear cavity) of latanoprost lithium salt or placebo once daily during the three first days of each treatment period. The effect on hearing and tinnitus loudness was measured on Days 5, 15 and 29. Thereafter there was a treatment-free cross-over period of 2 months. After the cross-over period the patient entered the second treatment period and latanoprost lithium salt or placebo was again administered by intratympanic injection once daily during the three first days, and the same measurements of hearing and tinnitus were repeated. Latanoprost lithium salt was tested at 50 μg/ml, 150 μg/ml and 450 μg/ml concentration, and in addition one group of patients received latanoprost (isopropyl ester) at 50 μg/ml concentration according to the same cross-over study protocol.

[3] = man; lower ineffective, above 1.5 mM side effects may arise; cited from earlier work

Structure (SMILES): CC(C)OC(=O)CCC/C=C\C[C@@H]1[C@@H](CC[C@@H](O)CCc2ccccc2)[C@H](O)C[C@@H]1O [Latanoprost isopropyl ester, latanoprost]
- Lipophilicity relative to latanoprost lithium salt (Lipophilicity comparison): more than 1000 times
- Effect on hearing [1]: improved hearing
- Effect on vertigo [1]: reduced vertigo
- Effect on tinnitus ([1]; intratympanic injection): may reduce tinnitus
- Reduction of tinnitus loudness in decibels, Day 5 [2]: −5.5 ± 2.7 decibels
- Reduction of tinnitus loudness in decibels, Day 15 [2]: −9.5 ± 5.8 decibels
- Reduction of tinnitus loudness in decibels, Day 29 [2]: −9.6 ± 4.6 decibels

Structure (SMILES): O=C([O-])CCC/C=C\C[C@@H]1[C@@H](CC[C@@H](O)CCc2ccccc2)[C@H](O)C[C@@H]1O.[Li+] [Latanoprost acid lithium salt, latanoprost acid lithium salt]
- Effect on tinnitus loudness ([2]; 50 μg/ml): no effect
- Effect on tinnitus loudness ([2]; 150 μg/ml): no effect
- Reduction of tinnitus loudness in decibels, Day 5 [2]: −10.8 ± 3.5 decibels
- Reduction of tinnitus loudness in decibels, Day 15 [2]: −15.4 ± 6.4 decibels
- Reduction of tinnitus loudness in decibels, Day 29 [2]: −10.5 ± 3.9 decibels

Structure (SMILES): [Li] [Lithium, lithium]
- Therapeutic plasma concentration [3]: 0.5 to 1.5 mM

Reference: US20070219272A1, “Novel method and compositions for treatment of tinnitus” (priority 2006, published 2007)
